Assay results from US9840500B2, “Compounds as dual inhibitors of histone methyltransferases and DNA methyltransferases” (FUNDACIÓN PARA LA INVESTIGACIÓN MÉDICA APLICADA, priority 2014, dated 2017).
pIC50: −log10 of the molar value.

Experiments:
OCI-Ly10 = experiment: Cell proliferation assay, OCI-Ly10 (ABC-DLBCL); assay type: cell-based; conditions: Homo sapiens, 48 hours of treatment, Table 3
Protocol: (§1) Cell proliferation was analyzed after 48 hours of in vitro treatment using the CellTiter 96 Aqueous One Solution Cell Proliferation Assay (Promega, Madison, Wis.). This is a colorimetric method for determining the number of viable cells in proliferation.
(§2) For the assay, suspension cells were cultured by triplicate at a density of 1×10^6 cells/ml in 96-well plates (100.000 cells/well, 100 μl/well), except for OCILY-3 and OCILY-10 cell lines which were cultured at a density of 0.5×10^6 cells/ml (50.000 cells/well, 100 μl/well) and for HepG2, Hep3B and PLC/PRF/5 cell ines which were cultured at a density of 3000 cells/well, 100 μl/well). Adherent cells were obtained from 80-90% confluent flasks and 100 μl of cells were seeded at a density of 5000 cells/well in 96-well plates by triplicate. Before addition of the compounds, adherent cells were allowed to attach to the bottom of the wells for 12 hours. In all cases, only the 60 inner wells were used to avoid any border effects.
(§3) After 48 hours of treatment, plates with suspension cells were centrifuged at 800 g for 10 minutes and medium was removed. The plates with adherent cells were flicked to remove medium. Then, cells were incubated with 100 ul/well of medium and 20 ul/well of CellTiter 96 Aqueous One Solution reagent. After 1-3 hours of incubation at 37° C., absorbance was measured at 490 nm in a 96-well plate reader. The background absorbance was measured in wells with only cell line medium and solution reagent. Data was calculated as a percentage of total absorbance of treated cell/absorbance of non treated cells.

human G9a enzyme = target: T1, human G9a enzyme (Homo sapiens, UniProt Q96KQ7); experiment: G9a enzyme activity assay (TR-FRET); assay type: biochemical
T1 sequence (Q96KQ7 1-1210): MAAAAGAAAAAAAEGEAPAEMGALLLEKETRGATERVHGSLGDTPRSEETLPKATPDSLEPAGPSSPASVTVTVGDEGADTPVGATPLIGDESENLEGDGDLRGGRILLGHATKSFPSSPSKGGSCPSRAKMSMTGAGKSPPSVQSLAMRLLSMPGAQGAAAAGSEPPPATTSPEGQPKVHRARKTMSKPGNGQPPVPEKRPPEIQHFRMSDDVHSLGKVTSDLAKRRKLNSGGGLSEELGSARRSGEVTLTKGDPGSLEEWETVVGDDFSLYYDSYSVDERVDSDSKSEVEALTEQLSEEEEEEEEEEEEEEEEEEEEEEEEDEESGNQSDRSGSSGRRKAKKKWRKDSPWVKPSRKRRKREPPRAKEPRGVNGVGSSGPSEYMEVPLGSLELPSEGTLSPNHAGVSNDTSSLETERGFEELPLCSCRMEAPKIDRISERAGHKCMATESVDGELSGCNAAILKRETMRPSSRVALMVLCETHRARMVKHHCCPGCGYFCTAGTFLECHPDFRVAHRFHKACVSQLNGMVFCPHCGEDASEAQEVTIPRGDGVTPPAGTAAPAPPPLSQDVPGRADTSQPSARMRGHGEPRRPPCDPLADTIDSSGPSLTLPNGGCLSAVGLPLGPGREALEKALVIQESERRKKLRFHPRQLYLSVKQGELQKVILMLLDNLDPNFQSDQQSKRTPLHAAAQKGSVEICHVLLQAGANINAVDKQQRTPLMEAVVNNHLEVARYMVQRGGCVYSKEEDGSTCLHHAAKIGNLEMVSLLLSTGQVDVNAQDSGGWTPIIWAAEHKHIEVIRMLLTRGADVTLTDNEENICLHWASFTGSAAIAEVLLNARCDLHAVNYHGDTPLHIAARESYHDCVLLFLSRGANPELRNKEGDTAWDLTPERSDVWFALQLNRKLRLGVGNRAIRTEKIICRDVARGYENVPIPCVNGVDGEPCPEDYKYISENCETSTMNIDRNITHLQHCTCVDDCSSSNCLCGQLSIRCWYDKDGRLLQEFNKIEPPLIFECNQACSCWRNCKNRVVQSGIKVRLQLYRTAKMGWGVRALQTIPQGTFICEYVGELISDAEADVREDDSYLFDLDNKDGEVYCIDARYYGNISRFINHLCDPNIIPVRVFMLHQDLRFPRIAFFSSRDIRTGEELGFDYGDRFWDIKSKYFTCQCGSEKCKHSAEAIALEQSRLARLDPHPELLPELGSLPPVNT
Protocol: The biochemical assay to measure G9a enzyme activity relies on time-resolved fluorescence energy transfer (TR-FRET) between europium cryptate (donor) and XL665 (acceptor). […] The human G9a enzyme expressed in a baculovirus infected Sf9 cell expression system was obtained from BPS Biosciences (Cat. #51001). […] Final percentage of DMSO was 0.5%. • 2 μl of 1 nM G9a enzyme diluted in assay buffer. […] Final concentration 150 nM. • Then, add 5 μl of streptavidin XL665 beads. Final concentration of 16 μM. • Read the plate after 1 hour of incubation at room temperature.
(§4) For each well, fluorescence was measured at 620 nm and 665 nm. A ratio (665 nm/620 nm) was then calculated in order to minimize medium interferences. Positive control was obtained in the presence of the vehicle of the compounds. Negative control was obtained in the absence of G9a enzyme activity. Calculated IC50 values were determined using GraphPrism using 4-parameters inhibition curve.

DNMT1 = DNMT1 (Homo sapiens, UniProt P26358); experiment: DNMT1 enzyme activity assay (TR-FRET, EPIgeneous methyltransferase assay); assay type: biochemical
Protocol: The biochemical assay to measure DNMT1 enzyme activity relies on time-resolved fluorescence energy transfer (TR-FRET) between lumi4-Tb (donor) and d2 (acceptor) using the EPIgeneous methyltransferase assay (CisBio Cat#62SAHPEB). […] TR-FRET signal is inversely proportional to the concentration of SAH, product of DNMT1 enzyme activity, in the sample.
The human DNMT1 was obtained from Reaction Biology Corp. (Cat# DMT-21-124). […] Final percentage of DMSO was 0.5%. • 2 μl of 1 nM DNMT1 enzyme diluted in assay buffer.
as §4

HepG2 = experiment: Cell proliferation assay, HepG2 (HCC); assay type: cell-based; conditions: Homo sapiens, 48 hours of treatment, Table 3
Protocol: as §1, §2, §3

Hep3B = experiment: Cell proliferation assay, Hep3B (HCC); assay type: cell-based; conditions: Homo sapiens, 48 hours of treatment, Table 3
Protocol: as §1, §2, §3

CEMO-1 = experiment: Cell proliferation assay, CEMO-1 (ALL); assay type: cell-based, human; conditions: Homo sapiens; 48 hours of treatment; Table 3
Protocol: as §1, §2, §3

PLC/PRF/5 = experiment: Cell proliferation assay, PLC/PRF/5 (HCC); assay type: cell-based; conditions: Homo sapiens, 48 hours of treatment, Table 3
Protocol: as §1, §2, §3

OCI-Ly3 = experiment: Cell proliferation assay, OCI-Ly3 (ABC-DLBCL); assay type: cell-based; conditions: Homo sapiens, 48 hours of treatment, Table 3
Protocol: as §1, §2, §3

LAL-CUN-2 = experiment: Cell proliferation assay, LAL-CUN-2 (ALL); assay type: cell-based; conditions: 48 hours of treatment; Table 3
Protocol: as §1, §2, §3

Chain of DNMT1 (P26358 whole entry): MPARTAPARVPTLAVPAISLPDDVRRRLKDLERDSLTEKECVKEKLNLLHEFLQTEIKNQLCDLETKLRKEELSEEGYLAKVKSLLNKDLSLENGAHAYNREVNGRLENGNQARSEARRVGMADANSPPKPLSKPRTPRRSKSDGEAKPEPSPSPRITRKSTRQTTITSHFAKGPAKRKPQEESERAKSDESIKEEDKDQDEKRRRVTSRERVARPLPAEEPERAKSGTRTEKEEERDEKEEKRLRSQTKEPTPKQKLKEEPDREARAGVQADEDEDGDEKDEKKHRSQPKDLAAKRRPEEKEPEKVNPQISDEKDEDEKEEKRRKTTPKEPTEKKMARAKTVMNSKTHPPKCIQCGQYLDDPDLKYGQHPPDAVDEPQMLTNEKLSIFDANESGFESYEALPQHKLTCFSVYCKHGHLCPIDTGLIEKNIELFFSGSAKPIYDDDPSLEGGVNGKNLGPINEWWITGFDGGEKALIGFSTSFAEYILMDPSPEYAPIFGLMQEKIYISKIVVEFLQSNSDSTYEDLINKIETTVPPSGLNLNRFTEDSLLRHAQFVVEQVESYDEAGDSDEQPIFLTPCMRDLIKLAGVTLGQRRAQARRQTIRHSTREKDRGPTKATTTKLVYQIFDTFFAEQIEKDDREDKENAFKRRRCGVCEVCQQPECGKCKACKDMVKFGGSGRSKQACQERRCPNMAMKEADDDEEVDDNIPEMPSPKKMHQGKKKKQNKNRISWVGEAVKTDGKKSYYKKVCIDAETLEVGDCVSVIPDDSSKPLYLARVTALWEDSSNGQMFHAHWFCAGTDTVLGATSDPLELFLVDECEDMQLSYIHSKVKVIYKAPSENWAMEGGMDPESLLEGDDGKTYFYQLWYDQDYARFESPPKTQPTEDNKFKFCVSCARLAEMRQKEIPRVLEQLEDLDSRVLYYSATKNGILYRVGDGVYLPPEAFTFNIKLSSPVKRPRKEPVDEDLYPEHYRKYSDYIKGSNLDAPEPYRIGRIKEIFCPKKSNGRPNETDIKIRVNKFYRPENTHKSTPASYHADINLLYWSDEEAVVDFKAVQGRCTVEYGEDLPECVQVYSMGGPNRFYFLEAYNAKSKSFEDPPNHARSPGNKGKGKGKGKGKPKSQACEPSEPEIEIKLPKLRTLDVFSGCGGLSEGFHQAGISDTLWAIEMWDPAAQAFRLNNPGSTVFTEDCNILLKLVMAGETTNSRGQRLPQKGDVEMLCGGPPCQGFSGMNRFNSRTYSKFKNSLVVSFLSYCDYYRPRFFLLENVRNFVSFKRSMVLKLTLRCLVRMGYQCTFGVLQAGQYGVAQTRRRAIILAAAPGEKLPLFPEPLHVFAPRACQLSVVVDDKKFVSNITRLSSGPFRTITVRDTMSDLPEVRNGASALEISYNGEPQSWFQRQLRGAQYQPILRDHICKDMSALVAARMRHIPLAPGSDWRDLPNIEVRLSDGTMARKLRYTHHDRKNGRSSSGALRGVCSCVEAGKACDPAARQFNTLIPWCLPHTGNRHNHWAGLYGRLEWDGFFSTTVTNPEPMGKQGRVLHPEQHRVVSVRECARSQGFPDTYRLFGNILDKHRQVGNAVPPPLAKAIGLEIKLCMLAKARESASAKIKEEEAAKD

Row | Structure (SMILES) | GI50 (OCI-Ly10) | pIC50 (human G9a enzyme) | pIC50 (DNMT1) | GI50 (HepG2) | GI50 (Hep3B) | GI50 (CEMO-1) | GI50 (PLC/PRF/5) | GI50 (OCI-Ly3) | GI50 (LAL-CUN-2)
1 | COc1cc2c(NC3CCCC3)cc(C)nc2cc1OCCCN1CCCC1 [Compound 3-24] | 1 to 10 µM | > 7.00 | 5.00 to 6.00 | – | – | – | – | – | –
2 | COc1cc2c(NC3CCN(C)CC3)cc(-c3ccccc3)nc2cc1OCCCN1CCCC1 [Compound 3-29] | 0.1 to 1 µM | > 7.00 | 5.00 to 6.00 | 1 to 10 µM | 1 to 10 µM | 0.1 to 1 µM | 1 to 10 µM | 0.1 to 1 µM | –
3 | CCc1ccc(-c2cc(NCC3CCN(C)CC3)c3cc(OC)c(OCCCN4CCCC4)cc3n2)o1 [Compound 3-42] | – | – | – | < 0.1 µM | 0.1 to 1 µM | – | 0.1 to 1 µM | 0.1 to 1 µM | 0.1 to 1 µM
4 | CNC(=O)CCNc1cc(-c2ccc(C)o2)nc2cc(OCCCN3CCCC3)c(OC)cc12 [Compound 3-19] | 0.1 to 1 µM | – | – | ≤ 10 µM | 1 to 10 µM | 1 to 10 µM | 1 to 10 µM | 0.1 to 1 µM | –
5 | COc1cc2c(NC3CC4(CCN(C)CC4)C3)cc(-c3ccc(C)o3)nc2cc1OCCCN1CCCC1 [Compound 5-02] | – | – | – | 1 to 10 µM | 1 to 10 µM | – | 1 to 10 µM | 0.1 to 1 µM | –
6 | COc1cc2c(NC3CCC34CCN(C)C4)cc(-c3ccc(C)o3)nc2cc1OCCCN1CCCC1 (stereo not shown) [Compound 5-04] | – | – | – | – | – | – | – | 0.1 to 1 µM | 1 to 10 µM
7 | COc1cc2c(NC3CCN(C)CC3)cc(-c3ccc(C)o3)nc2cc1OC1CC2(C1)CN(C)C2 [Compound 17-01, 6-methoxy-7-[(2-methyl-2-azaspiro[3.3]heptan-6-yl)oxy]-2-(5-methyl-2-furyl)-N-(1-methyl-4-piperidyl)quinolin-4-amine; 2,2,2-trifluoroacetic acid] | – | – | – | 0.1 to 1 µM | 0.1 to 1 µM | – | 0.1 to 1 µM | < 0.1 µM | –
8 | COc1cc2c(NC3CCN(C)CC3)cc(-c3ccc(C)o3)nc2cc1OCC1CCNCC1 [Compound 11-01, 6-methoxy-2-(5-methyl-2-furyl)-N-(1-methyl-4-piperidyl)-7-(4-piperidylmethoxy)quinolin-4-amine; 2,2,2-trifluoroacetic acid] | – | – | – | 1 to 10 µM | 1 to 10 µM | – | 1 to 10 µM | < 0.1 µM | –
9 | COc1cc2c(NC3CC4(CCN(C)C4)C3)cc(-c3ccc(C)o3)nc2cc1OCCCN1CCCC1 (stereo not shown) [Compound 5-03] | – | – | – | – | – | – | – | 0.1 to 1 µM | 1 to 10 µM
10 | COc1cc2c(NC3CCN(C(C)C)CC3)cc(C3CCCCC3)nc2cc1OCCCN1CCCC1 [Compound 7-05, 2-cyclohexyl-N-(1-isopropyl-4-piperidyl)-6-methoxy-7-(3-pyrrolidin-1-ylpropoxy)quinolin-4-amine; 2,2,2-trifluoroacetic acid] | – | > 7.00 | 6.00 to 6.30 | ≤ 10 µM | ≤ 10 µM | ≤ 10 µM | ≤ 10 µM | – | –
11 | COc1cc2c(NC3CCN(C)CC3)cc(C3=CCCCC3)nc2cc1OCCCN1CCCC1 [Compound 6-01, 2-(cyclohexen-1-yl)-6-methoxy-N-(1-methyl-4-piperidyl)-7-(3-pyrrolidin-1-ylpropoxy)quinolin-4-amine; 2,2,2-trifluoroacetic acid] | – | > 7.00 | 6.30 to 7.00 | – | – | 1 to 10 µM | – | – | 1 to 10 µM
12 | CCc1ccc(-c2cc(NC3CCC34CCN(C)CC4)c3cc(OC)c(OCCCN4CCCC4)cc3n2)o1 (stereo not shown) [Compound 5-07, 2-(5-ethyl-2-furyl)-6-methoxy-N-(7-methyl-7-azaspiro[3.5]nonan-3-yl)-7-(3-pyrrolidin-1-ylpropoxy)quinolin-4-amine; 2,2,2-trifluoroacetic acid] | – | – | – | 0.1 to 1 µM | 0.1 to 1 µM | – | 0.1 to 1 µM | < 0.1 µM | –
13 | COc1cc2c(NC3CCN(C)CC3)cc(-c3ccc4occc4c3)nc2cc1OCCCN1CCCC1 [Compound 3-28] | < 0.1 µM | > 7.00 | 6.00 to 6.30 | – | – | 1 to 10 µM | – | – | –
14 | COc1cc2c(NC3CCN(C)CC3)cc(-c3ccc(C)o3)nc2cc1OC1CCN(C)CC1 [Compound 12-02] | 0.1 to 1 µM | – | – | 1 to 10 µM | 1 to 10 µM | 0.1 to 1 µM | 1 to 10 µM | 0.1 to 1 µM | –
15 | CCc1ccc(-c2cc(NC3CCN(C)CC3)c3cc(OC)c(OCCCN4CCCC4)cc3n2)o1 [Compound 3-41] | – | – | – | 0.1 to 1 µM | 0.1 to 1 µM | – | 0.1 to 1 µM | – | 0.1 to 1 µM
16 | COc1cc2c(NC3CC4(CCN(C)CC4)C3)cc(-c3ccc(C)o3)nc2cc1OCC1CCN(C)CC1 [Compound 12-03] | – | – | – | 0.1 to 1 µM | 0.1 to 1 µM | – | 0.1 to 1 µM | < 0.1 µM | –
